Measurements: ChEMBL document CHEMBL1147737, “4-(3'alpha15'beta-dihydroxy-5'beta-estran-17'beta-yl)furan-2-methyl alcohol: an anti-digoxin agent with a novel mechanism of action” (2006)
Active and inactive are the calls of the source.

How the values were obtained:
[1] = tested on: NT2; assay: Inhibition of digoxin-induced transferrin accumulation in NT2 cells; assay type: functional, cell-based; conditions: Homo sapiens
[2] = species: Cavia porcellus; assay: Inhibition of 1 uM digoxin-induced increase in the force of contraction in guinea pig papillary muscle at 10 uM; assay type: functional
[3] = species: Cavia porcellus; assay: Inhibition of digoxin-induced arrhythmias in guinea pig papillary muscle; assay type: functional
[4] = tested on: Sodium/potassium-transporting ATPase (Cavia porcellus); assay: Binding affinity to CS receptor on Na+-ATPase; conditions: filed as antagonist
[5] = tested on: Sodium/potassium-transporting ATPase (Cavia porcellus); assay: Binding affinity to CS receptor on K(+)-ATPase; conditions: filed as antagonist

Measured: Activity

C[C@]12CC[C@H]3[C@@H](CC[C@@H]4C[C@H](O)CC[C@@H]43)[C@@H]1[C@H](O)C[C@@H]2c1coc(CO)c1
active: [1] | [2] | [3] | [4] Antagonist | [5] Antagonist
